Measurements reported in patent US6355658B1, “Coumarin derivatives, methods of preparation and application as medicines” (Centre National de la Recherche Scientifique, priority 1997, dated 2002).
Read-outs that look alike come from different tables or passages of the source.

What was measured:
bovine α-chymotrypsin = molecular target: T1, bovine α-chymotrypsin (Bos taurus, UniProt P00766); test: Inactivation kinetics of bovine α-chymotrypsin (chromogenic substrate Suc-Ala2-Pro-Phe-pNA); assay type: biochemical; settings: 25° C., pH 7.5, N.I. = non-inactivator; for kinact/KI: TABLE 1, 2-pyridyl esters, read-out: Ki/KI or kobs/[I], α-CT
T1 construct: bovine α-chymotrypsin
Protocol: (§1) The inactivating or inhibitory properties of the coumarin derivatives were tested with respect to a certain number of enzymes: human leukocyte elastase, bovine α-chymotrypsin, human thrombin and bovine trypsin. The kinetic measurements were taken at 25° C. in the following buffers: 0.1 M Hepes, 0.5 M NaCl, 0.01% Tween 80, pH 8.0 (human leukocyte elastase); 0.025 M NaH2PO4, 0.05 M KCl, pH 7.5 (α-chymotrypsin); 0.01 M Tris, 0.01 M Hepes, 0.1 M NaCl, 0.1% PEG-6000, pH 7.5 (human thrombin); 0.1 M Tris, 0.01 M CaCl2, pH 7.5 (bovine trypsin). The chromogenic substrates used to determine the activity of the enzymes are: MeOSuc-Ala2-Pro-Val-pNA (human leukocyte elastase); Suc-Ala2-Pro-Phe-pNA (α-chymotrypsin); H-D-Phe-Pip-Arg-pNA (human thrombin); N-benzoyl-Arg-pNA (bovine trypsin) (pNA: para-nitroaniline).
(§2) The interaction of a suicide substrate with a serine protease corresponds to the minimum reaction scheme described in equation 1 in which E represents the enzyme, I represents the inhibitor, E-I represents the acyl-enzyme and E-I′ represents the inactivated enzyme [Silverman R. B., 1988, “Mechanism-based enzyme inactivation: chemistry and enzymology”, volume 1 CRC Press, Boca Raton, Fla.]: [drawing 76]
(§3) When k4 is small compared to k3, equation 1 can be simplified (equation 2, [Daniels et al., 1983, J. Biol. Chem., 258: 15046-15053]): [drawing 77]
(§4) Considering the first instants of the reaction, the system reduces to a simplified equation of the form of equation 2.
(§5) The kinetic constants characterizing the inactivation of the enzymes with the coumarin derivatives were determined using either the conventional sampling method (or batchwise method) or a method placing the inhibitor and the substrate in competition (or continuous method); these methods are described by Pochet et al. [Pochet et al., 1996, J. Med. Chem., 39: 2579-2585].
(§6) The inactivation of serine proteaaes with the coumarin derivatives is thus characterized by the following constants (see Eq. 2):
(§7) KI: apparent dissociation constant of an enzyme-inhibitor complex located upstream of ki
(§8) ki: first-order rate constant for inactivation at infinite inhibitor concentration
(§9) ki/KI: index of the overall inactivating efficacy of the inhibitor.

human leukocyte elastase = molecular target: T2, human leukocyte elastase (Homo sapiens, UniProt P08246); test: Inactivation kinetics of human leukocyte elastase (chromogenic substrate MeOSuc-Ala2-Pro-Val-pNA); assay type: biochemical; settings: for kinact/KI / Ki/KI or kobs/[I], LHE: 25° C., pH 8.0; for kinact/KI: inactivation phase of transient inactivation, read-out: Ki/KI or kobs/[I], LHE; for Ki/KI or kobs/[I], LHE: inactivation phase
T2 sequence (P08246 30-247 limits assumed): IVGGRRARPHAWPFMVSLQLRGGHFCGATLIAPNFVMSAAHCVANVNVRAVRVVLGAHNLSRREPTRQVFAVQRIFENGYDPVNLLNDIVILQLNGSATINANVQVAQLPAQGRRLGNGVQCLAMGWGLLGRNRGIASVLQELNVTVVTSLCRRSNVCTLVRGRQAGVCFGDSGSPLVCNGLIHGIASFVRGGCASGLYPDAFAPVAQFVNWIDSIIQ
Protocol: as §1, §2, §3, §4, §5, §6, §7, §8, §9

human thrombin = molecular target: T3, human thrombin (Homo sapiens, UniProt P00734); test: Inactivation kinetics of human thrombin (chromogenic substrate H-D-Phe-Pip-Arg-pNA); assay type: biochemical; settings: 25° C., pH 7.5, N.I. = non-inactivator
T3 construct: human thrombin
Protocol: as §1, §2, §3, §4, §5, §6, §7, §8, §9

bovine trypsin = molecular target: T4, bovine trypsin (Bos taurus, UniProt P00760); test: Inactivation kinetics of bovine trypsin (chromogenic substrate N-benzoyl-Arg-pNA); assay type: biochemical; settings: 25° C., pH 7.5, N.I. = non-inactivator
T4 sequence (P00760 24-246): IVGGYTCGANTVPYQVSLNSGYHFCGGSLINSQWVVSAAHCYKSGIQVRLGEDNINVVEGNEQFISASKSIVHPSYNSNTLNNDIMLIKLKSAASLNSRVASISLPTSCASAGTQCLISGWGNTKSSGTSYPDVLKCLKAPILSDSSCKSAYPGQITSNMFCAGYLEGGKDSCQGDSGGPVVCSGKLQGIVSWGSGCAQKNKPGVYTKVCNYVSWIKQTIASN
Protocol: as §1, §2, §3, §4, §5, §6, §7, §8, §9

[1] = TABLE 3, no chloromethyl in position 6

| Compound | kinact/KI (bovine α-chymotrypsin) [M⁻¹ s⁻¹] | kinact/KI (human leukocyte elastase; TABLE 1, 2-pyridyl esters) [M⁻¹ s⁻¹] | Ki/KI or kobs/[I], LHE (human leukocyte elastase; TABLE 1) [M⁻¹ s⁻¹] | Ki/KI or kobs/[I], Thrombin (human thrombin; TABLE 1, 2-pyridyl esters, inactivation phase) | Ki/KI or kobs/[I], Thrombin (human thrombin; TABLE 1, inactivation phase) | Ki/KI or kobs/[I], Trypsin (bovine trypsin; TABLE 1, 2-pyridyl esters) | Ki/KI or kobs/[I], Trypsin (bovine trypsin; TABLE 1) | melting point [°C] | Ki/KI or kobs/[I], α-CT (bovine α-chymotrypsin; [1]) | Ki/KI or kobs/[I], α-CT (bovine α-chymotrypsin; second table headed TABLE 3) | kinact/KI (human leukocyte elastase; [1]) [M⁻¹ s⁻¹] | Ki/KI or kobs/[I], LHE (human leukocyte elastase; TABLE 3) [M⁻¹ s⁻¹] | Ki/KI or kobs/[I], Thrombin (human thrombin; TABLE 3) | Ki/KI or kobs/[I], Thrombin (human thrombin; second table headed TABLE 3) | Ki/KI or kobs/[I], Trypsin (bovine trypsin; TABLE 3) | Ki/KI or kobs/[I], Trypsin (bovine trypsin; second table headed TABLE 3) | half-reactivation time for the enzyme (human leukocyte elastase; compound 750 nM, HLE 100 nM) [min] | time during which the inhibition remains at 90% (human leukocyte elastase; compound 750 nM, HLE 100 nM) [min] | inhibition at 0.75 µM (human leukocyte elastase; compound 750 nM, HLE 100 nM, reached in less than one minute) [%] | kinact/KI (human thrombin; TABLE 1, 2-pyridyl esters, inactivation phase, read-out: Ki/KI or kobs/[I], Thrombin) [M⁻¹ s⁻¹] |
| --- | --- | --- | --- | --- | --- | --- | --- | --- | --- | --- | --- | --- | --- | --- | --- | --- | --- | --- | --- | --- |
| Cc1cccc(OC(=O)c2cc3cc(CCl)ccc3oc2=O)n1 [Ic′″10, 6-methyl-2-pyridyl 6-chloromethyl-2-oxo-2H-1-benzopyran-3-carboxylate] | 3300 | 200 | 200 | N.I. | N.I. | N.I.^a — — N.I. N.I. | N.I.^a — — N.I. N.I. | 160 to 162 |  |  |  |  |  |  |  |  |  |  |  |  |
| CC(C)C(=O)OCc1ccc2oc(=O)c(C(=O)Oc3cncc(Cl)c3)cc2c1 [Id9, 5-chloro-3-pyridyl 6-dimethylacetoxymethyl-2-oxo-2H-1-benzopyran-3-carboxylate] |  |  |  |  |  |  |  | 162 to 164 | N.I.^a N.I. N.I. N.I. N.I. N.I. N.I. N.I. | N.I.^a N.I. N.I. N.I. N.I. N.I. N.I. N.I. | 45000 | 45000 | N.I. N.I. N.I. N.I. N.I. N.I. N.I. N.I. — | N.I. N.I. N.I. N.I. N.I. N.I. N.I. N.I. — | N.I. N.I. N.I. N.I. N.I. N.I. N.I. — — | N.I. N.I. N.I. N.I. N.I. N.I. N.I. — — |  |  |  |  |
| Cc1ccc2oc(=O)c(C(=O)Oc3cncc(Cl)c3)cc2c1 [Ib2, 5-chloro-3-pyridyl 6-methyl-2-oxo-2H-1-benzopyran-3-carboxylate] |  |  |  |  |  |  |  | 215 to 217 | N.I.^a N.I. N.I. N.I. N.I. N.I. N.I. N.I. | N.I.^a N.I. N.I. N.I. N.I. N.I. N.I. N.I. | 32500 | 32500 | N.I. N.I. N.I. N.I. N.I. N.I. N.I. N.I. — | N.I. N.I. N.I. N.I. N.I. N.I. N.I. N.I. — | N.I. N.I. N.I. N.I. N.I. N.I. N.I. — — | N.I. N.I. N.I. N.I. N.I. N.I. N.I. — — | 35 | 80 | 90 |  |
| CC(=O)OCc1ccc2oc(=O)c(C(=O)Oc3cncc(Cl)c3)cc2c1 [Id3, 5-chloro-3-pyridyl 6-acetoxymethyl-2-oxo-2H-1-benzopyran-3-carboxylate] |  |  |  |  |  |  |  | 153 to 155 | N.I.^a N.I. N.I. N.I. N.I. N.I. N.I. N.I. | N.I.^a N.I. N.I. N.I. N.I. N.I. N.I. N.I. | 107000 | 107000 | N.I. N.I. N.I. N.I. N.I. N.I. N.I. N.I. — | N.I. N.I. N.I. N.I. N.I. N.I. N.I. N.I. — | N.I. N.I. N.I. N.I. N.I. N.I. N.I. — — | N.I. N.I. N.I. N.I. N.I. N.I. N.I. — — |  |  |  |  |
| O=C(Oc1ccccn1)c1cc2cc(CCl)ccc2oc1=O [Ic′″9, 2-pyridyl 6-chloromethyl-2-oxo-2H-1-benzopyran-3-carboxylate] | 1670 | 420 | 420 |  | ~240 M⁻¹ s⁻¹ | N.I.^a — — N.I. N.I. | N.I.^a — — N.I. N.I. | 125 to 129 |  |  |  |  |  |  |  |  |  |  |  | ~240 |
| CCC(=O)OCc1ccc2oc(=O)c(C(=O)Oc3cncc(Cl)c3)cc2c1 [Id6, 5-chloro-3-pyridyl 6-propionyloxymethyl-2-oxo-2H-1-benzopyran-3-carboxylate] |  |  |  |  |  |  |  | 156 to 158 | N.I.^a N.I. N.I. N.I. N.I. N.I. N.I. N.I. | N.I.^a N.I. N.I. N.I. N.I. N.I. N.I. N.I. | 62000 | 62000 | N.I. N.I. N.I. N.I. N.I. N.I. N.I. N.I. — | N.I. N.I. N.I. N.I. N.I. N.I. N.I. N.I. — | N.I. N.I. N.I. N.I. N.I. N.I. N.I. — — | N.I. N.I. N.I. N.I. N.I. N.I. N.I. — — |  |  |  |  |
| CCCC(=O)OCc1ccc2oc(=O)c(C(=O)Oc3cncc(Cl)c3)cc2c1 [Id10, 5-chloro-3-pyridyl 6-butyryloxymethyl-2-oxo-2H-1-benzopyran-3-carboxylate] |  |  |  |  |  |  |  | 146 to 148 | N.I.^a N.I. N.I. N.I. N.I. N.I. N.I. N.I. | N.I.^a N.I. N.I. N.I. N.I. N.I. N.I. N.I. | 67600 | 67600 | N.I. N.I. N.I. N.I. N.I. N.I. N.I. N.I. — | N.I. N.I. N.I. N.I. N.I. N.I. N.I. N.I. — | N.I. N.I. N.I. N.I. N.I. N.I. N.I. — — | N.I. N.I. N.I. N.I. N.I. N.I. N.I. — — |  |  |  |  |
